Results reported in US6358885B1, “Substituted phenylheterocyclic herbicides” (Mississippi State University, priority 1992, dated 2002).

Experiments:
rice = assay: Test C flood test plant response rating 0 to 100; format: in vivo, Oryza sativa
Source text: The compounds evaluated in this test were formulated in a non-phytoxic solvent and applied to the soil surface before plant seedlings emerged (preemergence application), to water that covered the soil surface (flood application), and to plants that were in the one-to-four leaf stage (postemergence application). A sandy loam soil was used for the preemergence and postemergence tests, while a silt loam soil was used in the flood test. Water depth was approximately 2.5 cm for the flood test and was maintained at this level for the duration of the test. Plant species in the preemergence and postemergence tests consisted of barley (Hordeum vulgare), bedstraw (Galium aparine), blackgrass (Alopecurus myosuroides), chickweed (Stellaria media), corn (Zea mays), cotton (Gossypium hirsutum), crabgrass (Digitaria sanguinalis), downy brome (Bromus tectorum), giant foxtail (Setaria faberii), lambsquarters (Chenopodium album), morningglory (Ipomoea hederacea), pigweed ([…]), rape (Brassica napus), ryegrass (Lolium multiflorum), sorghum (Sorghum bicolor), soybean (Glycine max), speedwell (Veronica persica), sugar beet (Beta vulgaris), velvetleaf (Abutilon theophrasti), wheat (Triticum aestivum), wild buckwheat (Polygonum convolvulus), and wild oat (Avena fatua). All plant species were planted one day before application of the compound for the preemergence portion-of this test. Plantings of these species were adjusted to produce plants of appropriate size for the post-emergence portion of the test. […] All plant species were grown using normal greenhouse practices. Visual evaluations of injury expressed on treated plants, when compared to untreated controls, were recorded approximately fourteen to twenty one days after application of the test compound. […] A dash (-) response means no test result.

cotton = assay: Test C preemergence/postemergence greenhouse plant response rating 0 to 100; format: in vivo, Gossypium hirsutum; conditions: for Plant response rating, Cotton: 62 g/ha, 0 to 100 scale
Summary of the method: (§1)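 Compounds in non-phytotoxic solvent went onto sandy loam before emergence (seeded one day earlier) or onto plants at the one-to-four leaf stage. Duck salad was treated via flood water (~2.5 cm, maintained) over silt loam.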

crabgrass = assay: as above; format: in vivo, Digitaria sanguinalis; conditions: for Plant response rating, Crabgrass: 62 g/ha, 0 to 100 scale
Summary of the method: as §1

velvetleaf [1] = assay: Test B preemergence/postemergence greenhouse plant response rating 0 to 10; format: in vivo, Abutilon theophrasti; conditions: 0 to 10 scale
Summary of the method: (§2)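 Postemergence treatment of plants two to eighteen cm tall ran alongside preemergence treatment of planted seed, each using compound in a non-phytotoxic solvent.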

barnyardgrass = assay: as above; format: in vivo, Echinochloa crus-galli; conditions: 0 to 10 scale
Summary of the method: as §2

sorghum = assay: Test C preemergence/postemergence greenhouse plant response rating 0 to 100; format: in vivo, Sorghum bicolor
Summary of the method: as §1

wild oat = assay: as above; format: in vivo, Avena fatua
Summary of the method: as §1

sugar beet = assay: Test B preemergence/postemergence greenhouse plant response rating 0 to 10; format: in vivo, Beta vulgaris; conditions: 0 to 10 scale
Summary of the method: as §2

velvetleaf [2] = assay: Test C preemergence/postemergence greenhouse plant response rating 0 to 100; format: in vivo, Abutilon theophrasti
Summary of the method: as §1

lambsquarters = assay: Test B preemergence/postemergence greenhouse plant response rating 0 to 10; format: in vivo, Chenopodium album; conditions: 0 to 10 scale
Summary of the method: as §2

giant foxtail = assay: as above; format: in vivo, Setaria faberii; conditions: 0 to 10 scale
Summary of the method: as §2

pigweed = assay: Test C preemergence/postemergence greenhouse plant response rating 0 to 100; format: in vivo, Amaranthusretroflexus; conditions: for Plant response rating Pigweed: 62 g/ha, 0 to 100 scale
Summary of the method: as §1

[3] = POSTEMERGENCE, 62 g/ha, 0 to 100 scale

## CCN1C(=O)COc2cc(F)c(-c3nn4c(c3Cl)CCCC4)cc21 [Compound 54]
rice; POSTEMERGENCE section, flood test, Rate 1 g/ha
  Plant response rating (0 to 100), Rice Japonica: 0
rice; POSTEMERGENCE section, flood test, Rate 4 g/ha
  Plant response rating (0 to 100), Rice Japonica: 0
rice; Rate 16 g/ha, under POSTEMERGENCE head (flood test species)
  Plant response rating (0 to 100), Rice Japonica: 55
rice; flood test species listed under POSTEMERGENCE, 62 g/ha, 0 to 100 scale
  Plant response rating Rice Japonica: 85
cotton; POSTEMERGENCE
  Plant response rating, Cotton: 100
cotton; POSTEMERGENCE, Rate 1 g/ha
  Plant response rating (0 to 100), Cotton: 70
cotton; POSTEMERGENCE, Rate 4 g/ha
  Plant response rating (0 to 100), Cotton: 95
cotton; PREEMERGENCE
  Plant response rating, Cotton: 40
cotton; PREEMERGENCE, Rate 1 g/ha
  Plant response rating (0 to 100), Cotton: 0
cotton; PREEMERGENCE, Rate 4 g/ha
  Plant response rating (0 to 100), Cotton: 0
cotton; Rate 16 g/ha, POSTEMERGENCE
  Plant response rating (0 to 100), Cotton: 100
cotton; Rate 16 g/ha, PREEMERGENCE
  Plant response rating (0 to 100), Cotton: 0
crabgrass; POSTEMERGENCE
  Plant response rating, Crabgrass: 50
crabgrass; POSTEMERGENCE, Rate 1 g/ha
  Plant response rating (0 to 100), Crabgrass: 10
crabgrass; POSTEMERGENCE, Rate 4 g/ha
  Plant response rating (0 to 100), Crabgrass: 20
crabgrass; PREEMERGENCE
  Plant response rating, Crabgrass: 50
crabgrass; PREEMERGENCE, Rate 1 g/ha
  Plant response rating (0 to 100), Crabgrass: 0
crabgrass; PREEMERGENCE, Rate 4 g/ha
  Plant response rating (0 to 100), Crabgrass: 0
crabgrass; Rate 16 g/ha, POSTEMERGENCE
  Plant response rating (0 to 100), Crabgrass: 30
crabgrass; Rate 16 g/ha, PREEMERGENCE
  Plant response rating (0 to 100), Crabgrass: 0
Velvetleaf [1]; POSTEMERGENCE, Rate 10 g/ha
  Plant response rating, Velvetleaf: 8
Velvetleaf [1]; POSTEMERGENCE, Rate 50 g/ha
  Plant response rating, Velvetleaf: 9
Velvetleaf [1]; PREEMERGENCE, Rate 50 g/ha
  Plant response rating, Velvetleaf: 10
barnyardgrass; POSTEMERGENCE, Rate 10 g/ha
  Plant response rating, Barnyardgrass: 3
barnyardgrass; POSTEMERGENCE, Rate 50 g/ha
  Plant response rating, Barnyardgrass: 5
barnyardgrass; PREEMERGENCE, Rate 10 g/ha
  Plant response rating, Barnyardgrass: 0
barnyardgrass; PREEMERGENCE, Rate 50 g/ha
  Plant response rating, Barnyardgrass: 3
sorghum; [3]
  Plant response rating, Sorghum: 60
sorghum; POSTEMERGENCE, Rate 1 g/ha
  Plant response rating (0 to 100), Sorghum: 20
sorghum; POSTEMERGENCE, Rate 4 g/ha
  Plant response rating (0 to 100), Sorghum: 40
sorghum; PREEMERGENCE, Rate 1 g/ha
  Plant response rating (0 to 100), Sorghum: 0
sorghum; PREEMERGENCE, Rate 4 g/ha
  Plant response rating (0 to 100), Sorghum: 0
sorghum; Rate 16 g/ha, POSTEMERGENCE
  Plant response rating (0 to 100), Sorghum: 50
sorghum; Rate 16 g/ha, PREEMERGENCE
  Plant response rating (0 to 100), Sorghum: 0
Wild oat; [3]
  Plant response rating, Wild oat: 60
Wild oat; POSTEMERGENCE, Rate 1 g/ha
  Plant response rating (0 to 100), Wild oat: 20
Wild oat; POSTEMERGENCE, Rate 4 g/ha
  Plant response rating (0 to 100), Wild oat: 30
Wild oat; PREEMERGENCE, Rate 1 g/ha
  Plant response rating (0 to 100), Wild oat: 0
Wild oat; PREEMERGENCE, Rate 4 g/ha
  Plant response rating (0 to 100), Wild oat: 0
Wild oat; Rate 16 g/ha, POSTEMERGENCE
  Plant response rating (0 to 100), Wild oat: 40
Wild oat; Rate 16 g/ha, PREEMERGENCE
  Plant response rating (0 to 100), Wild oat: 10
Sugar beet; POSTEMERGENCE, Rate 10 g/ha
  Plant response rating, Sugar beet: 10
Sugar beet; POSTEMERGENCE, Rate 50 g/ha
  Plant response rating, Sugar beet: 10
Sugar beet; PREEMERGENCE, Rate 50 g/ha
  Plant response rating, Sugar beet: 9
Velvetleaf [2]; [3]
  Plant response rating, Velvetleaf: 100
Velvetleaf [2]; POSTEMERGENCE, Rate 1 g/ha
  Plant response rating (0 to 100), Velvetleaf: 70
Velvetleaf [2]; POSTEMERGENCE, Rate 4 g/ha
  Plant response rating (0 to 100), Velvetleaf: 100
Velvetleaf [2]; PREEMERGENCE, Rate 1 g/ha
  Plant response rating (0 to 100), Velvetleaf: 0
Velvetleaf [2]; PREEMERGENCE, Rate 4 g/ha
  Plant response rating (0 to 100), Velvetleaf: 0
Velvetleaf [2]; Rate 16 g/ha, POSTEMERGENCE
  Plant response rating (0 to 100), Velvetleaf: 100
Velvetleaf [2]; Rate 16 g/ha, PREEMERGENCE
  Plant response rating (0 to 100), Velvetleaf: 80
lambsquarters; POSTEMERGENCE, Rate 10 g/ha
  Plant response rating, Lambsquarter: 10
lambsquarters; POSTEMERGENCE, Rate 50 g/ha
  Plant response rating, Lambsquarter: 10
lambsquarters; PREEMERGENCE, Rate 50 g/ha
  Plant response rating, Lambsquarter: 10
Giant foxtail; POSTEMERGENCE, Rate 10 g/ha
  Plant response rating, Giant foxtail: 4
Giant foxtail; POSTEMERGENCE, Rate 50 g/ha
  Plant response rating, Giant foxtail: 4
Giant foxtail; PREEMERGENCE, Rate 10 g/ha
  Plant response rating, Giant foxtail: 0
Giant foxtail; PREEMERGENCE, Rate 50 g/ha
  Plant response rating, Giant foxtail: 8
pigweed; POSTEMERGENCE
  Plant response rating Pigweed: 100
pigweed; POSTEMERGENCE, Rate 1 g/ha
  Plant response rating (0 to 100), Pigweed: 95
pigweed; POSTEMERGENCE, Rate 4 g/ha
  Plant response rating (0 to 100), Pigweed: 100
pigweed; PREEMERGENCE
  Plant response rating Pigweed: 100
pigweed; PREEMERGENCE, Rate 1 g/ha
  Plant response rating (0 to 100), Pigweed: 0
pigweed; PREEMERGENCE, Rate 4 g/ha
  Plant response rating (0 to 100), Pigweed: 90
pigweed; Rate 16 g/ha, POSTEMERGENCE
  Plant response rating (0 to 100), Pigweed: 100
pigweed; Rate 16 g/ha, PREEMERGENCE
  Plant response rating (0 to 100), Pigweed: 100
